Measured values: patent US9630929B2, “Benzenesulfonamide compounds and their use as therapeutic agents” (XENON PHARMACEUTICALS INC., priority 2011, dated 2017)

What was measured:
NaV1.7 [1] = target: T1, NaV1.7 (Homo sapiens (Human), UniProt Q15858); test: NaV flux assay, inhibition of NaV1.7; type: cell-based; conditions: NaV flux data, included when EP data is not available
NaV1.7 [2] = target: T1, NaV1.7; test: Patch voltage clamp electrophysiology (EP), affinity for the inactivated state of Nav1.7; type: cell-based; conditions: HEK-293 cells expressing human Nav1.7 with β1 subunit
Method: The following patch voltage clamp electrophysiology studies were performed on representative compounds of the invention using human embryonic kidney cells (HEK), permanently transfected with an expression vector containing the full-length cDNA coding for the desired human sodium channel α-subunit, grown in culture media containing 10% FBS, 1% PSG, and 0.5 mg/mL G418 at 37° C. with 5% CO2. […] Nav1.7 and Nav1.5 cDNAs (NM_002977 and AC137587; SCN5A, respectively) were stably expressed in HEK-293 cells. The β1 subunit was coexpressed only in the Nav1.7 cell line.
Sodium currents were measured using the patch clamp technique in the whole-cell configuration using either a PatchXpress automated voltage clamp or manually using an Axopatch 200B (Axon Instruments) or Model 2400 (A-M systems) amplifier. […] The pipette was filled with a solution comprised of: 5 mM NaCl, 10 mM CsCl, 120 mM CsF, 0.1 mM CaCl2, 2 mM MgCl2, 10 mM HEPES, 10 mM EGTA; and adjusted to pH 7.2 with CsOH. The external solution had the following composition: 140 mM NaCl, 5 mM KCl, 2 mM CaCl2, 1 mM MgCl2, 10 mM HEPES; and adjusted to pH 7.4 with NaOH. In some studies, the external sodium was reduced by equimolar replacement with choline. Osmolarity in the CsF internal and NaCl external solutions was adjusted to 300 mOsm/kg and 310 mOsm/kg with glucose, respectively. All recordings were performed at ambient temperature in a bath chamber with a volume of 150 μL. Control sodium currents were measured in 0.5% DMSO. Controls and representative compounds of the invention were applied to the recording chamber through a 4-pinch or 8-pinch valve bath perfusion system manufactured by ALA Scientific Instruments.
Series resistance compensation was applied (60-80%). […] All statistics in this study are given as mean±SD.
The membrane potential was maintained at a voltage where inactivation of the channel is complete (which was −60 mV for both Nav1.7 and Nav1.5). The voltage is then stepped back to a very negative (Vhold=−150 mV) voltage for 20 ms and then a test pulse is applied to quantify the compound block. […] The percent decrease in sodium current following wash-on of compound was taken as the percent block of sodium channels.
The Example numbers provided in Table 1 and Table 2 correspond to the Examples herein: […]

T1 sequence (Q15858 other isoform, or with tags, fused parts or gaps): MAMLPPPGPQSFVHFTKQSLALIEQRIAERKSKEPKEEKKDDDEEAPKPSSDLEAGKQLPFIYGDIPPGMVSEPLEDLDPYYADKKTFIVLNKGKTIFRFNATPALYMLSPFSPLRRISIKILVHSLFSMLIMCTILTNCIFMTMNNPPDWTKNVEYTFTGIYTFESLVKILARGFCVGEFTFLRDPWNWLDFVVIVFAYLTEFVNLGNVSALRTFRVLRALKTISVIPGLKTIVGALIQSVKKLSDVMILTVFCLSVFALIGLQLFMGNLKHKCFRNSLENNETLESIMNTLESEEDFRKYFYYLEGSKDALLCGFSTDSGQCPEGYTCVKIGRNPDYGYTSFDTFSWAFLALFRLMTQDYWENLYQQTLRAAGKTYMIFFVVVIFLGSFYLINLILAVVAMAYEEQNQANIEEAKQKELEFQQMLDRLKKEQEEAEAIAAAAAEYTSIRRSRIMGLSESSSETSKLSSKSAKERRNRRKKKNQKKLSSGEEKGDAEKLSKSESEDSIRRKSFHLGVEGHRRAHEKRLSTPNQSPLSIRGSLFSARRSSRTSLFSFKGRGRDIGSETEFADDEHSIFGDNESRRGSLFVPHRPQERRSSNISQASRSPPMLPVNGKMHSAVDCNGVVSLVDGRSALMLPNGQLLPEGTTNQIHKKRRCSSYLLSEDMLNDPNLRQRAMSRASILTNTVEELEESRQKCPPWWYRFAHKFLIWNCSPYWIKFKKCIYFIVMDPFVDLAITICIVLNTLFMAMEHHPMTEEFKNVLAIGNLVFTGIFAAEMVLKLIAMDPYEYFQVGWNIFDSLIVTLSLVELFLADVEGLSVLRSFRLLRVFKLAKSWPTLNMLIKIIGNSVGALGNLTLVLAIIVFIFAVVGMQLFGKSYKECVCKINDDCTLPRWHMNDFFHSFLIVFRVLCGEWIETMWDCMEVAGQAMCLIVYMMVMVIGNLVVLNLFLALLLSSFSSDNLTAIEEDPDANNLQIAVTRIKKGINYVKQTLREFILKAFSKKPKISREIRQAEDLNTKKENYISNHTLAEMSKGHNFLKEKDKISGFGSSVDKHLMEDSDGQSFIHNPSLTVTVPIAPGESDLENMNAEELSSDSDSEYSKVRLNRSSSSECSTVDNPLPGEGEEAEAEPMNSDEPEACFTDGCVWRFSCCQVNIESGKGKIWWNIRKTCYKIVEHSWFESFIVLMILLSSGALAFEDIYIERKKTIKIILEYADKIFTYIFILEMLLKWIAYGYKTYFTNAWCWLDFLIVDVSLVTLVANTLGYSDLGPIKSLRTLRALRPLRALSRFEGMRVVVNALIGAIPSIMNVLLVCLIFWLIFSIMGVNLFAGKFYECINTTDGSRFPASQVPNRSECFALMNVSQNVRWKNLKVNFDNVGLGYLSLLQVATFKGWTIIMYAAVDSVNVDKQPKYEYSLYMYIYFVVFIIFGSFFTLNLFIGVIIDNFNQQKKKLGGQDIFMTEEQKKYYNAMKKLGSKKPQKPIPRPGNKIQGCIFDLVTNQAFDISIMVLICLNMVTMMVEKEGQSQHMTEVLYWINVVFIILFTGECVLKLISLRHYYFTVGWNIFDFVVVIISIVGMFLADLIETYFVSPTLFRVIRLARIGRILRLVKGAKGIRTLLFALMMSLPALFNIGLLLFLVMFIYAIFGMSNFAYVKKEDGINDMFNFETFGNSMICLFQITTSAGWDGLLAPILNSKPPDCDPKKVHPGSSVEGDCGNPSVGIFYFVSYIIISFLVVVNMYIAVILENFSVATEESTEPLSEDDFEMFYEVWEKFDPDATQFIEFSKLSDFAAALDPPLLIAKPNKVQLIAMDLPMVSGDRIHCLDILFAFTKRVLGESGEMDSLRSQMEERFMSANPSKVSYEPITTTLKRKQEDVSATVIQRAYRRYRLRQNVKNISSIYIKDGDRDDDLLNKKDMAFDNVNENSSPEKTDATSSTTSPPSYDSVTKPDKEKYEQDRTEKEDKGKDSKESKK
T1 sequence (Q07699 19-218 partner): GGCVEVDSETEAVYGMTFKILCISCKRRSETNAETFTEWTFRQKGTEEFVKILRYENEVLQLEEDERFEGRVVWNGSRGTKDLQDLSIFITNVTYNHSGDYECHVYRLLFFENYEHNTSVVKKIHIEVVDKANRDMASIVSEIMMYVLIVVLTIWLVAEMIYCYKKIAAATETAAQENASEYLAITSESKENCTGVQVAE

IC50 (NaV1.7 [1]) [µM] | IC50 (NaV1.7 [2]; read-out: NaV1.7 (IC50 class)) [µM] | IC50 (NaV1.7 [2]; read-out: NaV1.7 IC50) [µM] | SMILES
 | < 0.1 | 0.0844 | O=S(=O)(Nc1nncs1)c1cc(F)c(OC[C@@H]2CNCC[C@H]2c2ccc(Cl)cc2)cc1F (relative stereo) [Example 51, 4-((trans-4-(4-chlorophenyl)piperidin-3-yl)methoxy)-2,5-difluoro-N-(1,3,4-thiadiazol-2-yl)benzenesulfonamide]
 | < 0.1 |  | O=S(=O)(Nc1ncns1)c1cc(F)c(OC[C@@H]2CNCC[C@H]2c2ccc(Cl)cc2)cc1F [Example 84, 4-(((3S,4R)-4-(4-chlorophenyl)piperidin-3-yl)methoxy)-2,5-difluoro-N-(1,2,4-thiadiazol-5-yl)benzenesulfonamide]
 | 0.1 to 1 | 0.194 | Cc1nsc(NS(=O)(=O)c2cc(F)c(OC[C@@H]3CNCC[C@H]3c3ccc(Cl)cc3)cc2F)n1 (relative stereo) [Example 52, 4-((trans-4-(4-chlorophenyl)piperidin-3-yl)methoxy)-2,5-difluoro-N-(3-methyl-1,2,4-thiadiazol-5-yl)benzenesulfonamide]
 | < 0.1 |  | O=S(=O)(Nc1ncns1)c1cc(F)c(OC[C@@H]2CNCC[C@H]2c2ccc(Cl)cc2)cc1F (relative stereo) [Example 44, 4-((trans-4-(4-chlorophenyl)piperidin-3-yl)methoxy)-2,5-difluoro-N-(1,2,4-thiadiazol-5-yl)benzenesulfonamide]
 |  | 0.237 | O=S(=O)(Nc1ncns1)c1cc(F)c(OC[C@H]2CNCC[C@H]2c2ccc(Cl)cc2)cc1F (relative stereo) [Example 66, 4-((cis-4-(4-chlorophenyl)piperidin-3-yl)methoxy)-2,5-difluoro-N-(1,2,4-thiadiazol-5-yl)benzenesulfonamide]
 | < 0.1 | 0.0011 | O=S(=O)(Nc1ncns1)c1cc(F)c(OC[C@H]2CNCC[C@@H]2c2ccc(Cl)cc2)cc1F [Example 77, 4-(((3R,4S)-4-(4-chlorophenyl)piperidin-3-yl)methoxy)-2,5-difluoro-N-(1,2,4-thiadiazol-5-yl)benzenesulfonamide]
 | 0.1 to 1 | 0.116 | Cc1cnc(NS(=O)(=O)c2cc(F)c(OC[C@@H]3CNCC[C@H]3c3ccc(Cl)cc3)cc2F)s1 (relative stereo) [Example 57, 4-((trans-4-(4-chlorophenyl)piperidin-3-yl)methoxy)-2,5-difluoro-N-(5-methylthiazol-2-yl)benzenesulfonamide]

The remaining lines, values behind:

SMILES | IC50 (NaV1.7 [1]) [µM] | IC50 (NaV1.7 [2]; read-out: NaV1.7 (IC50 class)) [µM] | IC50 (NaV1.7 [2]; read-out: NaV1.7 IC50) [µM]
O=C1C[C@@H](c2cc(F)c(F)cc2F)[C@H](COc2cc(F)c(S(=O)(=O)Nc3ncns3)cc2F)CN1 (relative stereo) [Example 101, 2,5-difluoro-4-((trans-6-oxo-4-(2,4,5-trifluorophenyl)piperidin-3-yl)methoxy)-N-(1,2,4-thiadiazol-5-yl)benzenesulfonamide] | 4.49 |  | 
O=C(NS(=O)(=O)c1cc(F)c(OC[C@@H]2CNCC[C@H]2c2ccc(Cl)cc2)cc1F)c1ccccn1 (relative stereo) [Example 99, N-((4-((trans-4-(4-chlorophenyl)piperidin-3-yl)methoxy)-2,5-difluorophenyl)sulfonyl)picolinamide] | > 10 |  | 
N#Cc1cc(S(=O)(=O)NCC(F)(F)F)ccc1OC[C@@H]1CNCC[C@H]1c1ccc(Cl)cc1 (relative stereo) [Example 93, 4-((trans-4-(4-chlorophenyl)piperidin-3-yl)methoxy)-3-cyano-N-(2,2,2-trifluoroethyl)benzenesulfonamide] | > 10 |  | 
CC(C)NS(=O)(=O)c1ccc(OC[C@@H]2CNCC[C@H]2c2ccc(Cl)cc2)c(C#N)c1 (relative stereo) [Example 90, 4-((trans-4-(4-chlorophenyl)piperidin-3-yl)methoxy)-3-cyano-N-isopropylbenzenesulfonamide] | > 10 |  | 
O=C(NS(=O)(=O)c1cc(F)c(OC[C@@H]2CNCC[C@H]2c2ccc(Cl)cc2)cc1F)c1ccccc1 (relative stereo) [Example 104, N-((4-((trans-4-(4-chlorophenyl)piperidin-3-yl)methoxy)-2,5-difluorophenyl)sulfonyl)benzamide] | > 10 |  | 
O=S(=O)(Nc1ncns1)c1cc(F)c(OC[C@@H]2CNCC[C@H]2c2ccc(F)cc2)cc1F [Example 46, 2,5-difluoro-4-(((3S,4R)-4-(4-fluorophenyl)piperidin-3-yl)methoxy)-N-(1,2,4-thiadiazol-5-yl)benzenesulfonamide] |  | 0.1 to 1 | 0.928
O=S(=O)(Nc1ncns1)c1cc(F)c(OC[C@@H]2CNC[C@H]2c2ccc(Cl)cc2)cc1F (relative stereo) [Example 54, 4-((trans-4-(4-chlorophenyl)pyrrolidin-3-yl)methoxy)-2,5-difluoro-N-(1,2,4-thiadiazol-5-yl)benzenesulfonamide] |  | < 0.1 | 0.0499
O=S(=O)(Nc1ncccn1)c1cc(F)c(OC[C@@H]2CNCC[C@H]2c2ccc(Cl)cc2)cc1F (relative stereo) [Example 49, 4-((trans-4-(4-chlorophenyl)piperidin-3-yl)methoxy)-2,5-difluoro-N-(pyrimidin-2-yl)benzenesulfonamide] |  | < 0.1 | 0.0532
O=S(=O)(Nc1ncns1)c1cc(F)c(OC[C@@H]2CN(CC(F)F)CC[C@H]2c2ccc(Cl)cc2)cc1F (relative stereo) [Example 83, 4-((trans-4-(4-chlorophenyl)-1-(2,2-difluoroethyl)piperidin-3-yl)methoxy)-2,5-difluoro-N-(1,2,4-thiadiazol-5-yl)benzenesulfonamide] |  | < 0.1 | 0.0381
O=S(=O)(Nc1ncns1)c1cc(F)c(OC[C@@H]2CCCC[C@H]2c2ccc(F)cc2)cc1F (relative stereo) [Example 68, 2,5-difluoro-4-((trans-2-(4-fluorophenyl)cyclohexyl)methoxy)-N-(1,2,4-thiadiazol-5-yl)benzenesulfonamide] |  | 0.1 to 1 | 0.28
O=S(=O)(Nc1ccc(F)cn1)c1cc(F)c(OC[C@@H]2CNCC[C@H]2c2ccc(Cl)cc2)cc1F (relative stereo) [Example 63, 4-((trans-4-(4-chlorophenyl)piperidin-3-yl)methoxy)-2,5-difluoro-N-(5-fluoropyridin-2-yl)benzenesulfonamide] |  | < 0.1 | 0.0705
O=S(=O)(Nc1ncns1)c1cc(F)c(OC[C@@H]2CN(CCF)CC[C@H]2c2ccc(Cl)cc2)cc1F (relative stereo) [Example 80, 4-((trans-4-(4-chlorophenyl)-1-(2-fluoroethyl)piperidin-3-yl)methoxy)-2,5-difluoro-N-(1,2,4-thiadiazol-5-yl)benzenesulfonamide] |  | < 0.1 | 0.0937
CC(C)(C)OC(=O)N1CC[C@@H](c2ccc(Cl)cc2)[C@H](COc2cc(F)c(S(=O)(=O)Nc3ncns3)cc2F)C1 (relative stereo) [Example 69, trans-tert-butyl 3-((4-(N-(1,2,4-thiadiazol-5-yl)sulfamoyl)-2,5-difluorophenoxy)methyl)-4-(4-chlorophenyl)piperidine-1-carboxylate] |  | 0.1 to 1 | 0.164
Cc1cc(NS(=O)(=O)c2cc(F)c(OC[C@@H]3CNCC[C@H]3c3ccc(Cl)cc3)cc2F)no1 (relative stereo) [Example 56, 4-((trans-4-(4-chlorophenyl)piperidin-3-yl)methoxy)-2,5-difluoro-N-(5-methylisoxazol-3-yl)benzenesulfonamide] |  | 1 to 10 | 1.89
O=S(=O)(Nc1cccnn1)c1cc(F)c(OC[C@@H]2CNCC[C@H]2c2ccc(Cl)cc2)cc1F (relative stereo) [Example 65, 4-((trans-4-(4-chlorophenyl)piperidin-3-yl)methoxy)-2,5-difluoro-N-(pyridazin-3-yl)benzenesulfonamide] |  | 0.1 to 1 | 0.171
O=S(=O)(Nc1ncns1)c1cc(F)c(OC[C@@H]2CCNC[C@H]2c2ccc(F)cc2)cc1F (relative stereo) [Example 82, 2,5-difluoro-4-((trans-3-(4-fluorophenyl)piperidin-4-yl)methoxy)-N-(1,2,4-thiadiazol-5-yl)benzenesulfonamide] |  | < 0.1 | 0.0317
O=S(=O)(Nc1ncccn1)c1cc(F)c(OC[C@@H]2CNCC[C@H]2c2ccc(F)cc2)cc1F (relative stereo) [Example 50, 2,5-difluoro-4-((trans-4-(4-fluorophenyl)piperidin-3-yl)methoxy)-N-(pyrimidin-2-yl)benzenesulfonamide] |  | 0.1 to 1 | 0.323
